Legend:
Format in all cases: ADME, organism-based
[1] = Plasma clearance in Sprague-Dawley rat at 1 mg/kg, iv or 3 mg/kg, po
[2] = Volume of distribution at steady state in Sprague-Dawley rat at 1 mg/kg, iv or 3 mg/kg, po; conditions: in vivo, read-out: Vdss
[3] = Oral bioavailability in Sprague-Dawley rat at 3 mg/kg; conditions: in vivo
[4] = Cmax in Sprague-Dawley rat at 3 mg/kg, po; parameters: dose 3 mg/kg, route oral; conditions: in vivo
[5] = AUC (0 to infinity) in Sprague-Dawley rat at 3 mg/kg, po; parameters: dose 3 mg/kg, time infinity, route oral; conditions: in vivo
[6] = Cmax in complete freund's adjuvant-induced Lewis rat arthritis model plasma at 3 mg/kg, po qd administered via gavage treated for 7 consecutive days measured after 30 mins post last dose; parameters: dose 3 mg/kg, route oral; conditions: in vivo, 0.5 h
[7] = Cmin in complete freund's adjuvant-induced Lewis rat arthritis model plasma at 3 mg/kg, po qd administered via gavage treated for 7 consecutive days measured after 24 hrs post last dose; conditions: read-out: Cmin
[8] = Cmax in complete freund's adjuvant-induced Lewis rat arthritis model plasma at 10 mg/kg, po qd administered via gavage treated for 7 consecutive days measured after 30 mins post last dose; parameters: dose 10 mg/kg, route oral
[9] = Cmin in complete freund's adjuvant-induced Lewis rat arthritis model plasma at 10 mg/kg, po qd administered via gavage treated for 7 consecutive days measured after 24 hrs post last dose; conditions: read-out: Cmin
[10] = Cmax in complete freund's adjuvant-induced Lewis rat arthritis model plasma at 30 mg/kg, po qd administered via gavage treated for 7 consecutive days measured after 30 mins post last dose; parameters: dose 30 mg/kg, route oral
[11] = Cmin in complete freund's adjuvant-induced Lewis rat arthritis model plasma at 30 mg/kg, po qd administered via gavage treated for 7 consecutive days measured after 24 hrs post last dose; conditions: read-out: Cmin

## Cc1ccc(S(=O)(=O)O)cc1.Cn1cc(Nc2nccc(N3CC4CC[C@H](C3)N4C(=O)[C@@H]3CC3(F)F)n2)cn1 (single isomer, unassigned)
[1]
  clearance: 31 mL/min/kg
[2]
  Vd: 2 L/kg
[3]
  bioavailability: 83%
[4]
  Cmax: 774 ng/mL
[5]
  AUC(0-inf): 1340 ng·h/mL
[6]
  Cmax: 3540 nM
[7]
  concentration at 24 h: 22.1 nM
[8]
  Cmax: 11000 nM
[9]
  concentration at 24 h: 60 nM
[10]
  Cmax: 23900 nM
[11]
  concentration at 24 h: 60 nM

From ChEMBL document CHEMBL4411260, “Dual Inhibition of TYK2 and JAK1 for the Treatment of Autoimmune Diseases: Discovery of (( S)-2,2-Difluorocyclopropyl)((1 R,5 S)-3-(2-((1-methyl-1 H-pyrazol-4-yl)amino)pyrimidin-4-yl)-3,8-diazabicyclo[3.2.1]octan-8-yl)methanone (PF-06700841)” (J Med Chem, 2018)
